From ChEMBL document CHEMBL1671699, “Steady-state intrapulmonary pharmacokinetics and pharmacodynamics of posaconazole in lung transplant recipients” (Antimicrob Agents Chemother, 2010)

Assays:
[1] = Drug level in lung transplant recipient epithelial lining fluid at 400 mg, po every 12 hrs after 8 hrs by LS/MS analysis; type: ADME, organism-based; conditions: human, read-out: Drug uptake
[2] = Tmax in lung transplant recipient epithelial lining fluid at 400 mg, po every 12 hrs after 12 hrs by LC/MS analysis; type: ADME, organism-based; conditions: human
[3] = AUC (0 to 24 hrs) in lung transplant recipient epithelial lining fluid at 400 mg, po every 12 hrs by LC/MS analysis; type: ADME, organism-based; parameters: time < 24 hr, dose 400 mg, route oral; conditions: human, in vivo
[4] = Ratio of drug level in lung transplant human recipient alveolar cell to plasma at 400 mg, po every 12 hrs after 5 hrs by LS/MS analysis; type: ADME, organism-based, Pneumocyte; conditions: other tissue
[5] = Ratio of drug level in lung transplant human recipient alveolar cell to plasma at 400 mg, po every 12 hrs after 8 hrs by LS/MS analysis; type: ADME, organism-based, Pneumocyte; conditions: other tissue
[6] = Drug level in lung transplant recipient alveolar cell at 400 mg, po every 12 hrs after 8 hrs by LS/MS analysis; type: ADME, organism-based, Pneumocyte; conditions: human, alveolar cells, read-out: Drug uptake
[7] = Ratio of AUC (0 to 12 hrs) in lung transplant recipient epithelial lining fluid to MIC90 for Aspergillus spp.; type: functional
[8] = tested on: Plasma; assay: AUC (0 to 12 hrs) in lung transplant recipient plasma at 400 mg, po every 12 hrs by LC/MS analysis; type: ADME, organism-based; parameters: dose 400 mg, time < 12 hr, route oral; conditions: human, in vivo
[9] = Ratio of drug level in lung transplant human recipient alveolar cell to plasma at 400 mg, po every 12 hrs after 24 hrs by LS/MS analysis; type: ADME, organism-based, Pneumocyte; conditions: other tissue
[10] = Ratio of Cmax in lung transplant recipient alveolar cell after 12 hrs to MIC90 for Aspergillus spp.; type: functional, Pneumocyte
[11] = tested on: Plasma; assay: AUC (0 to 24 hrs) in lung transplant recipient plasma at 400 mg, po every 12 hrs by LC/MS analysis; type: ADME, organism-based; parameters: dose 400 mg, time < 24 hr, route oral; conditions: human, in vivo
[12] = Cmin in lung transplant recipient plasma at 400 mg, po every 12 hrs after 12 hrs by LC/MS analysis; type: ADME, organism-based; conditions: human, read-out: Cmin
[13] = Ratio of AUC (0 to 24 hrs) in lung transplant recipient epithelial lining fluid to MIC90 for Aspergillus spp.; type: functional
[14] = T>MIC90 for Aspergillus spp. infected lung transplant recipient alveolar cell at 400 mg, po every 12 hrs by LS/MS analysis; type: functional, Pneumocyte
[15] = Ratio of fAUC (0 to 24 hrs) in lung transplant recipient plasma to MIC90 for Aspergillus spp.; type: functional
[16] = Ratio of AUC (0 to 12 hrs) in lung transplant recipient plasma to MIC90 for Aspergillus spp.; type: functional
[17] = AUC (0 to 24 hrs) in lung transplant recipient alveolar cell at 400 mg, po every 12 hrs by LC/MS analysis; type: ADME, organism-based, Pneumocyte; parameters: time < 24 hr, dose 400 mg, route oral; conditions: human, in vivo
[18] = Ratio of drug level in lung transplant human recipient alveolar cell to plasma at 400 mg, po every 12 hrs after 12 hrs by LS/MS analysis; type: ADME, organism-based, Pneumocyte; conditions: other tissue
[19] = Drug level in lung transplant recipient plasma at 400 mg, po every 12 hrs after 3 hrs by LS/MS analysis; type: ADME, organism-based; conditions: human, read-out: Drug uptake
[20] = Cmin in lung transplant recipient alveolar cell at 400 mg, po every 12 hrs after 12 hrs by LC/MS analysis; type: ADME, organism-based, Pneumocyte; conditions: human, alveolar cells, read-out: Cmin
[21] = Cmax in lung transplant recipient plasma at 400 mg, po every 12 hrs after 12 hrs by LC/MS analysis; type: ADME, organism-based; parameters: dose 400 mg, route oral; conditions: human
[22] = Drug level in lung transplant recipient alveolar cell at 400 mg, po every 12 hrs after 24 hrs by LS/MS analysis; type: ADME, organism-based, Pneumocyte; conditions: human, alveolar cells, read-out: Drug uptake
[23] = Tmax in lung transplant recipient plasma at 400 mg, po every 12 hrs after 12 hrs by LC/MS analysis; type: ADME, organism-based; conditions: human
[24] = Ratio of fAUC (0 to 12 hrs) in lung transplant recipient plasma to MIC90 for Aspergillus spp.; type: functional
[25] = Protein binding in human plasma at 400 mg, po BID by LS/MS analysis; type: ADME, organism-based; conditions: read-out: PPB
[26] = T>MIC90 for Aspergillus spp. infected lung transplant recipient epithelial lining fluid at 400 mg, po every 12 hrs by LS/MS analysis; type: functional
[27] = Ratio of Cmax in lung transplant recipient plasma after 12 hrs to MIC90 for Aspergillus spp.; type: functional
[28] = Drug level in lung transplant recipient epithelial lining fluid at 400 mg, po every 12 hrs after 5 hrs by LS/MS analysis; type: ADME, organism-based; conditions: human, read-out: Drug uptake
[29] = Ratio of AUC (0 to 24 hrs) in lung transplant recipient plasma to MIC90 for Aspergillus spp.; type: functional
[30] = Drug level in lung transplant recipient epithelial lining fluid at 400 mg, po every 12 hrs after 24 hrs by LS/MS analysis; type: ADME, organism-based; conditions: human, read-out: Drug uptake
[31] = Ratio of drug level in lung transplant human recipient alveolar cell to plasma at 400 mg, po every 12 hrs after 3 hrs by LS/MS analysis; type: ADME, organism-based, Pneumocyte; conditions: other tissue
[32] = Ratio of drug level in lung transplant human recipient epithelial lining fluid to plasma at 400 mg, po every 12 hrs after 8 hrs by LS/MS analysis; type: ADME, organism-based
[33] = Ratio of AUC (0 to 24 hrs) in lung transplant recipient alveolar cell to MIC90 for Aspergillus spp.; type: functional, Pneumocyte
[34] = Ratio of drug level in lung transplant human recipient epithelial lining fluid to plasma at 400 mg, po every 12 hrs after 24 hrs by LS/MS analysis; type: ADME, organism-based
[35] = Drug level in lung transplant recipient epithelial lining fluid at 400 mg, po every 12 hrs after 12 hrs by LS/MS analysis; type: ADME, organism-based; conditions: human, read-out: Drug uptake
[36] = Ratio of fCmax in lung transplant recipient plasma after 12 hrs to MIC90 for Aspergillus spp.; type: functional
[37] = AUC (0 to 12 hrs) in lung transplant recipient alveolar cell at 400 mg, po every 12 hrs by LC/MS analysis; type: ADME, organism-based, Pneumocyte; parameters: time < 12 hr, dose 400 mg, route oral; conditions: human, in vivo
[38] = Ratio of drug level in lung transplant human recipient epithelial lining fluid to plasma at 400 mg, po every 12 hrs after 3 hrs by LS/MS analysis; type: ADME, organism-based
[39] = Ratio of AUC (0 to 12 hrs) in lung transplant recipient alveolar cell to MIC90 for Aspergillus spp.; type: functional, Pneumocyte
[40] = Ratio of drug level in lung transplant human recipient epithelial lining fluid to plasma at 400 mg, po every 12 hrs after 12 hrs by LS/MS analysis; type: ADME, organism-based
[41] = Drug level in lung transplant recipient alveolar cell at 400 mg, po every 12 hrs after 5 hrs by LS/MS analysis; type: ADME, organism-based, Pneumocyte; conditions: human, alveolar cells, read-out: Drug uptake
[42] = Drug level in lung transplant recipient plasma at 400 mg, po every 12 hrs after 12 hrs by LS/MS analysis; type: ADME, organism-based; conditions: human, read-out: Drug uptake
[43] = Tmax in lung transplant recipient alveolar cell at 400 mg, po every 12 hrs after 12 hrs by LC/MS analysis; type: ADME, organism-based, Pneumocyte; conditions: human, alveolar cells
[44] = Drug level in lung transplant recipient alveolar cell at 400 mg, po every 12 hrs after 12 hrs by LS/MS analysis; type: ADME, organism-based, Pneumocyte; conditions: human, alveolar cells, read-out: Drug uptake
[45] = Drug level in lung transplant recipient plasma at 400 mg, po every 12 hrs after 8 hrs by LS/MS analysis; type: ADME, organism-based; conditions: human, read-out: Drug uptake
[46] = Drug level in lung transplant recipient alveolar cell at 400 mg, po every 12 hrs after 3 hrs by LS/MS analysis; type: ADME, organism-based, Pneumocyte; conditions: human, alveolar cells, read-out: Drug uptake
[47] = Drug level in lung transplant recipient plasma at 400 mg, po every 12 hrs after 5 hrs by LS/MS analysis; type: ADME, organism-based; conditions: human, read-out: Drug uptake
[48] = Ratio of Cmax in lung transplant recipient epithelial lining fluid after 12 hrs to MIC90 for Aspergillus spp.; type: functional
[49] = T>MIC90 for Aspergillus spp. infected lung transplant recipient plasma at 400 mg, po every 12 hrs by LS/MS analysis; type: functional
[50] = Drug level in lung transplant recipient plasma at 400 mg, po every 12 hrs after 24 hrs by LS/MS analysis; type: ADME, organism-based; conditions: human, read-out: Drug uptake
[51] = Cmax in lung transplant recipient alveolar cell at 400 mg, po every 12 hrs after 12 hrs by LC/MS analysis; type: ADME, organism-based, Pneumocyte; parameters: dose 400 mg, route oral; conditions: human, alveolar cells
[52] = Ratio of drug level in lung transplant human recipient epithelial lining fluid to plasma at 400 mg, po every 12 hrs after 5 hrs by LS/MS analysis; type: ADME, organism-based
[53] = AUC (0 to 12 hrs) in lung transplant recipient epithelial lining fluid at 400 mg, po every 12 hrs by LC/MS analysis; type: ADME, organism-based; parameters: time < 12 hr, dose 400 mg, route oral; conditions: human, in vivo
[54] = Cmax in lung transplant recipient epithelial lining fluid at 400 mg, po every 12 hrs after 12 hrs by LC/MS analysis; type: ADME, organism-based; parameters: dose 400 mg, route oral; conditions: human
[55] = Drug level in lung transplant recipient epithelial lining fluid at 400 mg, po every 12 hrs after 3 hrs by LS/MS analysis; type: ADME, organism-based; conditions: human, read-out: Drug uptake

CC[C@@H]([C@H](C)O)n1ncn(-c2ccc(N3CCN(c4ccc(OC[C@@H]5CO[C@@](Cn6cncn6)(c6ccc(F)cc6F)C5)cc4)CC3)cc2)c1=O [POSACONAZOLE] gave a concentration at 8 h [1] of 1000 ng/mL, a Tmax [2] of 5.3 h and an AUC [3] of 22.42 µg/h/mL. It also gave a Ratio [4] of 27.3, a Ratio [5] of 63.6 and a concentration at 8 h [6] of 54700 ng/mL. The Ratio [7] was 18.42, the AUC [8] was 10.99 µg/h/mL and the Ratio [9] was 56.4. For the same molecule, the Ratio [10] was 110.8, the AUC [11] was 21.98 µg/h/mL and the concentration at 12 h [12] was 810 ng/mL. The Ratio [13] was 36.84, the “T>MIC90” value [14] was 24 h and the Ratio [15] was 0.6. The Ratio [16] was 19.95, the AUC [17] was 1060 µg/h/mL and the Ratio [18] was 53.3. For the same molecule, the concentration at 3 h [19] was 1300 ng/mL, the concentration at 12 h [20] was 31300 ng/mL and the Cmax [21] was 1300 ng/mL. For the same molecule, the concentration at 24 h [22] was 49600 ng/mL, the Tmax [23] was 2.8 h and the Ratio [24] was 0.33. For the same molecule, the fraction unbound [25] was under 0.02, the “T>MIC90” value [26] was 24 h and the Ratio [27] was 2.5. It also gave a concentration at 5 h [28] of 1300 ng/mL, a Ratio [29] of 39.9 and a concentration at 24 h [30] of 500 ng/mL. For the same molecule, the Ratio [31] was 40.7, the Kp at 8 h [32] was 0.9 and the Ratio [33] was 2324. For the same molecule, the Kp at 24 h [34] was 0.68, the concentration at 12 h [35] was 1200 ng/mL and the Ratio [36] was 0.04. It also gave an AUC [37] of 530.2 µg/h/mL, a Kp at 3 h [38] of 0.94 and a Ratio [39] of 1162. For the same molecule, the Kp at 12 h [40] was 1, the concentration at 5 h [41] was 31300 ng/mL and the concentration at 12 h [42] was 930 ng/mL. For the same molecule, the Tmax [43] was 3.2 h, the concentration at 12 h [44] was 36800 ng/mL and the concentration at 8 h [45] was 810 ng/mL. For the same molecule, the concentration at 3 h [46] was 55400 ng/mL, the concentration at 5 h [47] was 1100 ng/mL and the Ratio [48] was 2.6. The “T>MIC90” value [49] was 24 h, the concentration at 24 h [50] was 740 ng/mL and the Cmax [51] was 55400 ng/mL. For the same molecule, the Kp at 5 h [52] was 0.57, the AUC [53] was 11.21 µg/h/mL and the Cmax [54] was 1300 ng/mL. For the same molecule, the concentration at 3 h [55] was 1100 ng/mL.
